{"source": "patent US20160356723A1", "about": "“Light-Up Probes Based On Fluorogens With Aggregation Induced Emission Characteristics For Cellular Imaging And Drug Screening” (NATIONAL UNIVERSITY OF SINGAPORE, priority 2014, published 2016)", "key": {"U87-MG cells [1]": {"test_system": "U87-MG cells", "assay": "Confocal imaging of intracellular thiols, U87-MG", "assay_type": "cell-based, human", "settings": "BSO increased from 25 to 100 μM", "method": "To explore the capability of using TPE-SS-D5-cRGD as a specific bioprobe for monitoring intracellular thiol levels in cancer cells, the probe is incubated with U87-MG human glioblastoma and MCF-7 breast cancer cell lines. U87-MG cells with overexpressed integrin αvβ3 on cellular membrane was chosen as integrin-positive cancer cell, while breast cancer cell MCF-7 with a low level of integrin αvβ3 expression was used as the negative control. […] It should be noted that the probe could also be used for live cell imaging. To provide further evidence for thiol-induced disulfide bond cleavage as the trigger of fluorescence turn-on, the U87-MG cells were also pretreated with buthionine sulfoximine (BSO) before incubation with TPE-SS-D5-cRGD. BSO is an inhibitor of g-glutamylcysteine synthetase which can inhibit the cells from synthesizing GSH. The fluorescence of TPE-SS-D5-cRGD treated U87-MG cells decreases as the concentration of BSO increases from 25 to 100 μM."}, "[2]": {"assay": "In vitro cytotoxicity studies", "assay_type": "cell-based"}, "MCF-7 cells": {"test_system": "MCF-7 cells", "assay": "Confocal imaging of drug-induced apoptosis, MCF-7", "assay_type": "cell-based", "settings": "5 μM probe, 6 h incubation, low integrin expression", "method": "(§1) U87-MG, MCF-7 and 293T cells were cultured in the chambers (LAB-TEK, Chambered Coverglass System) at 37° C. After 80% confluence, the culture medium was removed and washed twice with PBS buffer. The probe in DMSO stock solution was then added to the chamber to reach a final concentration of 5 μM. In some experiments, the cells were pre-incubated with media containing cRGD (50 μM) or inhibitor (5 μM) prior to prodrug incubation. After incubation the prodrug at 37° C. for 2 h, the medium was replaced with fresh medium, after that the cells were washed twice with ice-cold PBS and the cell nucleus was living stained with DRAQ5 (Biostatus) following the standard protocol of the manufacturer. […] The images were analyzed by Image J 1.43 x program (developed by NIH, http://rsbweb.nih.gov/ij/).\n(§2) To explore the capability of using TPS-DEVD-Pt-cRGD as a targeted drug delivery system and a drug induced apoptosis imaging probe in cancer cells. […] After 2 h of incubation, the cells were treated with cisplatin or staurosporine which both can activate the cell apoptosis and monitored with confocal microscopy. […] As the incubation time elapses, the fluorescence of U87-MG increases gradually with the cellular apoptotic progress, which reaches a maximum at 6 h. […]"}, "293T cells": {"test_system": "293T cells", "assay": "Confocal imaging of drug-induced apoptosis, 293T", "assay_type": "cell-based", "settings": "5 μM probe, 6 h incubation, low integrin expression", "method": "as §1, §2"}, "[3]": {"test_system": "normal U87-MG cell lysate", "assay": "Fluorescence in normal cell lysate", "assay_type": "biochemical, human", "settings": "5 μM probe, lysate of normal cells", "method": "(§3) To study the selectivity of the prodrug, we incubated ascorbic acid pretreated TPS-DEVD-Pt-cRGD (10 μM) with several proteins, including lysozyme, pepsin, bovine serum albumin (BSA) and trypsin under identical conditions. […] As there are many different kinds of proteins or enzymes inside the cells, we further obtained the cellular lysate of normal and apoptotic U87-MG cells, which were pretreated with commonly used cell apoptosis inducer staurosporine (STS, 2 μM) to activate the caspase-3 enzyme in the cells. The cell lysates were directly incubated with TPS-DEVD-Pt-cRGD (5 μM) and the fluorescence intensity at 485 nm was monitored over time."}, "[4]": {"target": "T1, recombinant human caspase-3 (Homo sapiens, UniProt P42574)", "T1 construct": "purchased R&D Systems", "T1 sequence (P42574 29-175 limits assumed)": "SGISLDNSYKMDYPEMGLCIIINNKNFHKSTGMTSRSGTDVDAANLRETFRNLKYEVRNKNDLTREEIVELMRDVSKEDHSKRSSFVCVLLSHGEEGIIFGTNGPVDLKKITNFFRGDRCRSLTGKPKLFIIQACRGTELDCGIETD", "T1 sequence (P42574 176-277 limits assumed)": "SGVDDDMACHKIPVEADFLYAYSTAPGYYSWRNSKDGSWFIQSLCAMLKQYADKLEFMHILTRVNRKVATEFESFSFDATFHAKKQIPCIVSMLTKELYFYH", "assay": "Enzymatic assay: fluorescence light-up on DEVD cleavage by caspase-3", "assay_type": "biochemical", "method": "DMSO stock solutions of TPS-DEVD-Pt-cRGD were diluted with a mixture of DMSO and PIPES (v/v=1/199) to 10 μM. Next, each probe was incubated with ascorbic acid or caspase-3 at room temperature and the change of fluorescence intensity was measured. The PL spectra were collected from 420 to 650 nm under an excitation wavelength at 365 nm.\nTo study the enzymatic response of TPS-DEVD-COOH, we performed in vitro enzymatic assays with recombinant human caspase-3. Mixtures of the ascorbic acid pretreated prodrug (10 μM) and caspases-3 (200 pM) were prepared and incubated in PIPES buffer. After 1 h incubation, the PL spectra were measured in the range from 425 to 650 nm.\nThe fluorescence change of the TPS-DEVD-Pt-cRGD solution (10 μM) upon addition of ascorbic acid and caspase-3 enzyme was also monitored over time in a mixture of DMSO/PIPEs (v/v=1/199) buffer. […] We further studied the effect of caspase-3 concentration on the solution emission."}, "[5]": {"test_system": "apoptotic U87-MG cell lysate", "assay": "Fluorescence in apoptotic cell lysate (STS pretreated)", "assay_type": "biochemical, human", "settings": "5 μM probe, lysate of cells pretreated with STS 2 μM", "method": "as §3"}, "[6]": {"test_system": "lysozyme, pepsin, bovine serum albumin (BSA) and trypsin", "assay": "Selectivity of fluorescence response against other proteins", "assay_type": "biochemical", "settings": "10 μM ascorbic acid pretreated probe, identical conditions as caspase-3", "method": "as §3"}, "[7]": {"assay": "Effect of ionic strength (NaCl) on emission", "assay_type": "physicochemical", "settings": "NaCl 0 to 960 mM", "from_the_text": "We next studied the optical properties of our prodrug. The UV-vis absorption spectra of TPS-CH2N3 in THF and TPS-DEVD-Pt-cRGD in DMSO/PIPES (v/v=1/199) buffer were obtained. Both have similar absorption profiles with an obvious absorbance in the 320-440 nm range with a little blue shift after the modification of the AIE fluorogen. It is known that AIE fluorogen is non-fluorescent in good solvents but emits intensely in solid or as aggregates in poor solvents. […] As biosensing is often conducted in buffers, it is important to study the effect of ionic strength on the emission behavior of the prodrug. The experiments were performed with addition of sodium chloride into an aqueous solution of TPS-DEVD-Pt-cRGD (10 μM). […] TPS-DEVD-Pt-cRGD and its reduction product maintain an “off” state in the complex environment and thus have great potential to serve as a specific light-up apoptosis sensor for drug effect study with minimum background interference.\nThe photoluminescence (PL) spectra of TPE-CH2NH2 and TPE-SS-D5-cRGD in DMSO and phosphate buffered saline (PBS, pH=7.4) mixtures (v/v=1/199) are shown in FIG. 13A. […] [12] The TPE-SS-D5-cRGD probe is almost non-fluorescent in the same medium (Φ=0.001), due to the easy intramolecular rotations of the TPE phenyl rings in aqueous media. […]"}, "Solubility in water": {"assay": "Solubility in water", "assay_type": "physicochemical", "settings": "DMSO/PIPEs v/v=1/199"}, "U87-MG cells [8]": {"test_system": "U87-MG cells", "assay": "Confocal imaging of drug-induced apoptosis, U87-MG", "assay_type": "cell-based, human", "method": "as §1, §2"}}}
{"smiles": "CCCCS(=N)(=O)CCC(N)C(=O)O", "note": "(centres unmarked) [BSO, buthionine sulfoximine]", "values": [{"measurement": "fluorescence of TPE-SS-D5-cRGD treated cells after BSO pretreatment", "setting": "U87-MG cells [1]", "value": "decreases"}]}
{"smiles": "N=C(N)NCCC[C@@H]1NC(=O)[C@H](CCCCNC(=O)[C@H](CC(=O)O)NC(=O)[C@H](CC(=O)O)NC(=O)[C@H](CC(=O)O)NC(=O)[C@H](CC(=O)O)NC(=O)[C@H](CC(=O)O)NC(=O)CCSSCCC(=O)NCc2ccc(C(=C(c3ccccc3)c3ccccc3)c3ccccc3)cc2)NC(=O)[C@@H](Cc2ccccc2)NC(=O)[C@H](CC(=O)O)NC(=O)CNC1=O", "note": "[TPE-SS-D5-cRGD]", "values": [{"measurement": "in vitro cytotoxicity", "setting": "[2]", "value": "biocompatible"}]}
{"smiles": "CC(C)[C@H](NC(=O)[C@H](CCC(=O)O)NC(=O)[C@H](CC(=O)O)NC(=O)CCC(=O)[O][Pt-2]([NH3+])([NH3+])([Cl])([Cl])[O]C(=O)CCC(=O)NCCCC[C@@H]1NC(=O)[C@@H](Cc2ccccc2)NC(=O)[C@H](CC(=O)O)NC(=O)CNC(=O)[C@H](CCCNC(=N)N)NC1=O)C(=O)N[C@@H](CC(=O)O)C(=O)N[C@@H](Cc1cn(Cc2ccc(C3=C(c4ccccc4)C(c4ccccc4)=C(c4ccccc4)[Si]3(C)C)cc2)nn1)C(N)=O", "note": "[TPS-DEVD-Pt-cRGD]", "values": [{"measurement": "cell fluorescence", "setting": "MCF-7 cells", "value": "weak fluorescence signal"}, {"measurement": "cell fluorescence", "setting": "293T cells", "value": "weak fluorescence signal"}, {"measurement": "fluorescence intensity at 485 nm (stability to cellular proteins)", "setting": "[3]", "value": "minimum change"}, {"measurement": "fluorescence increase over intrinsic emission with caspase-3", "setting": "[4]; 10 μM probe pretreated with ascorbic acid, DMSO/PIPES v/v=1/199, PL at 485 nm, 60 min", "value": 28, "unit": "fold"}, {"measurement": "time to fluorescence plateau after caspase-3 addition", "setting": "[4]; 10 μM probe, ascorbic acid and caspase-3, DMSO/PIPES v/v=1/199", "value": 60, "unit": "min"}, {"measurement": "detection limit for caspase-3", "setting": "[4]; three times sigma method, 10 μM probe, 1 h", "value": 1, "unit": "pM"}, {"measurement": "fluorescence intensity at 485 nm over time", "setting": "[5]", "value": "increases quickly"}, {"measurement": "fluorescence intensity with other proteins", "setting": "[6]", "value": "remain low"}, {"measurement": "change of fluorescence with NaCl", "setting": "[7]", "value": "Almost no change"}, {"measurement": "solubility in water", "setting": "Solubility in water", "value": "good solubility in water"}, {"measurement": "incubation time at which cell fluorescence reaches maximum", "setting": "U87-MG cells [8]; 5 μM probe, real-time imaging", "value": 6, "unit": "h"}, {"measurement": "cell fluorescence after pretreatment with free cRGD or/and caspase-3 inhibitor", "setting": "U87-MG cells [8]; cRGD 50 μM or inhibitor 5 μM before probe", "value": "weak fluorescence"}]}
